From PubChem BioAssay AID1259407 (Chemical Carcinogenesis Research Information System (CCRIS), 2018)
The source made the active and inactive calls. How the calls were made is not given here.

Tested on: CCRIS mutagenicity, Ames/micronucleus/aberration tests
Test: CCRIS mutagenicity studies
[1] = Test System: AMES SALMONELLA TYPHIMURIUM, Strain/Indicator: TA98, Metabolic Activation: NONE, Method: STANDARD PLATE
[2] = Test System: AMES SALMONELLA TYPHIMURIUM, Strain/Indicator: TA98, Metabolic Activation: RAT, LIVER, S-9, AROCLOR 1254, Method: STANDARD PLATE
[3] = Test System: AMES SALMONELLA TYPHIMURIUM, Strain/Indicator: TA100, Metabolic Activation: NONE, Method: STANDARD PLATE
[4] = Test System: AMES SALMONELLA TYPHIMURIUM, Strain/Indicator: TA100, Metabolic Activation: RAT, LIVER, S-9, AROCLOR 1254, Method: STANDARD PLATE
[5] = Test System: AMES SALMONELLA TYPHIMURIUM, Strain/Indicator: TA1535, Metabolic Activation: NONE, Method: STANDARD PLATE
[6] = Test System: AMES SALMONELLA TYPHIMURIUM, Strain/Indicator: TA1537, Metabolic Activation: NONE, Method: STANDARD PLATE

Question: With N=C1C=CC(=C(c2ccc(N)cc2)c2ccc(N)cc2)C=C1 as the compound, how does the mutagenic call (End Point: IN VITRO CHROMOSOMAL ABERRATIONS, Test System: CHO CELLS, Metabolic Activation: NONE) read?
Answer: The mutagenic call was “inactive; negative”.

Question: And the mutagenic call (End Point: IN VITRO CHROMOSOMAL ABERRATIONS, Test System: CHO CELLS, Metabolic Activation: RAT, LIVER, S-9, AROCLOR 1254)?
Answer: The mutagenic call was “inactive; negative”.

Question: And the mutagenic call (Test System: AMES SALMONELLA TYPHIMURIUM, Strain/Indicator: TA97, Metabolic Activation: NONE, Method: STANDARD PLATE)?
Answer: The mutagenic call was “inactive; negative”.

Question: And the mutagenic call (Test System: AMES SALMONELLA TYPHIMURIUM, Strain/Indicator: TA97, Metabolic Activation: RAT, LIVER, S-9, AROCLOR 1254, Method: STANDARD PLATE)?
Answer: The mutagenic call was “active; positive”.

Question: And the mutagenic call (Test System: AMES SALMONELLA TYPHIMURIUM, Strain/Indicator: TA97A, Metabolic Activation: NONE, Method: STANDARD PLATE)?
Answer: Its mutagenic call is “inactive; negative”.

Question: What about the mutagenic call (Test System: AMES SALMONELLA TYPHIMURIUM, Strain/Indicator: TA97A, Metabolic Activation: RAT, LIVER, S-9, AROCLOR 1254, Method: STANDARD PLATE) of the same compound?
Answer: The mutagenic call was “inactive; negative”.

Question: And the mutagenic call (Test System: AMES SALMONELLA TYPHIMURIUM, Strain/Indicator: TA98, Metabolic Activation: HAMSTER, LIVER, S-9, AROCLOR 1254, Method: STANDARD PLATE)?
Answer: The mutagenic call was “active; positive”.

Question: And the mutagenic call [1]?
Answer: Its mutagenic call is “active; positive”.

Question: What about the mutagenic call [2] of the same compound?
Answer: The mutagenic call was “active; positive”.

Question: What about the mutagenic call (Test System: AMES SALMONELLA TYPHIMURIUM, Strain/Indicator: TA100, Metabolic Activation: HAMSTER, LIVER, S-9, AROCLOR 1254, Method: STANDARD PLATE) of the same compound?
Answer: Its mutagenic call is “active; positive”.

Question: And the mutagenic call [3]?
Answer: The mutagenic call was “active; positive”.

Question: And the mutagenic call [4]?
Answer: Its mutagenic call is “active; positive”.

Question: And the mutagenic call (Test System: AMES SALMONELLA TYPHIMURIUM, Strain/Indicator: TA1535, Metabolic Activation: HAMSTER, LIVER, S-9, AROCLOR 1254, Method: STANDARD PLATE)?
Answer: The mutagenic call was “inactive; negative”.

Question: What about the mutagenic call [5] of the same compound?
Answer: The mutagenic call was “inactive; negative”.

Question: What about the mutagenic call (Test System: AMES SALMONELLA TYPHIMURIUM, Strain/Indicator: TA1535, Metabolic Activation: RAT, LIVER, S-9, AROCLOR 1254, Method: STANDARD PLATE) of the same compound?
Answer: The mutagenic call was “inactive; negative”.

Question: And the mutagenic call (Test System: AMES SALMONELLA TYPHIMURIUM, Strain/Indicator: TA1537, Metabolic Activation: HAMSTER, LIVER, S-9, AROCLOR 1254, Method: STANDARD PLATE)?
Answer: The mutagenic call was “inactive; negative”.

Question: What about the mutagenic call [6] of the same compound?
Answer: Its mutagenic call is “inactive; negative”.

Question: And the mutagenic call (Test System: AMES SALMONELLA TYPHIMURIUM, Strain/Indicator: TA1537, Metabolic Activation: RAT, LIVER, S-9, AROCLOR 1254, Method: STANDARD PLATE)?
Answer: Its mutagenic call is “inactive; negative”.

Question: What about the mutagenic call (Test System: E. COLI, Strain/Indicator: WP2 UVRA, Metabolic Activation: HAMSTER, LIVER, S-9, AROCLOR 1254, Method: STANDARD PLATE) of the same compound?
Answer: Its mutagenic call is “inactive; negative”.

Question: What about the mutagenic call (Test System: E. COLI, Strain/Indicator: WP2 UVRA, Metabolic Activation: HAMSTER, LIVER, S-9, Method: STANDARD PLATE) of the same compound?
Answer: Its mutagenic call is “inactive; negative”.

Question: And the mutagenic call (Test System: E. COLI, Strain/Indicator: WP2 UVRA, Metabolic Activation: MOUSE, LIVER, S-9, AROCLOR 1254, Method: STANDARD PLATE)?
Answer: The mutagenic call was “inactive; negative”.

Question: And the mutagenic call (Test System: E. COLI, Strain/Indicator: WP2 UVRA, Metabolic Activation: MOUSE, LIVER, S-9, Method: STANDARD PLATE)?
Answer: Its mutagenic call is “inactive; negative”.

Question: What about the mutagenic call (Test System: E. COLI, Strain/Indicator: WP2 UVRA, Metabolic Activation: NONE, Method: STANDARD PLATE) of the same compound?
Answer: The mutagenic call was “inactive; negative”.

Question: What about the mutagenic call (Test System: E. COLI, Strain/Indicator: WP2 UVRA, Metabolic Activation: RAT, LIVER, S-9, AROCLOR 1254, Method: STANDARD PLATE) of the same compound?
Answer: The mutagenic call was “inactive; negative”.

Question: And the mutagenic call (Test System: E. COLI, Strain/Indicator: WP2 UVRA, Metabolic Activation: RAT, LIVER, S-9, Method: STANDARD PLATE)?
Answer: The mutagenic call was “inactive; negative”.

Question: What about the mutagenic call (Test System: MOUSE LYMPHOMA, Strain/Indicator: L5178Y (TK+/TK-), Metabolic Activation: NONE, Method: SUSPENSION/PLATE) of the same compound?
Answer: Its mutagenic call is “active; positive”.

Question: And the mutagenic call (Test System: MOUSE LYMPHOMA, Strain/Indicator: L5178Y (TK+/TK-), Metabolic Activation: RAT, LIVER, S-9, AROCLOR 1254, Method: SUSPENSION/PLATE)?
Answer: Its mutagenic call is “active; positive”.

Question: For COP(=S)(OC)Oc1ccc([N+](=O)[O-])c(C)c1, which mutagenic call (End Point: IN VIVO MICRONUCLEUS, Test System: BONE MARROW POLYCHROMATIC ERYTHROCYTES, Species: MOUSE, Strain/Sex: DDY/MALE, Route: IP) is on record?
Answer: The mutagenic call was “inactive; negative”.

Question: And the mutagenic call (Test System: AMES SALMONELLA TYPHIMURIUM, Strain/Indicator: TA98, Metabolic Activation: NONE, Method: PREINCUBATION)?
Answer: Its mutagenic call is “inactive; negative”.

Question: What about the mutagenic call [1] of the same compound?
Answer: Its mutagenic call is “inactive; negative”.

Question: And the mutagenic call (Test System: AMES SALMONELLA TYPHIMURIUM, Strain/Indicator: TA98, Metabolic Activation: RAT LIVER S-9 (10%), Method: PREINCUBATION)?
Answer: The mutagenic call was “inactive; negative”.

Question: And the mutagenic call [2]?
Answer: The mutagenic call was “inactive; negative”.

Question: What about the mutagenic call (Test System: AMES SALMONELLA TYPHIMURIUM, Strain/Indicator: TA98, Metabolic Activation: S-9, NADPH GENERATING SYSTEM, Method: STANDARD PLATE) of the same compound?
Answer: The mutagenic call was “inactive; negative”.

Question: And the mutagenic call (Test System: AMES SALMONELLA TYPHIMURIUM, Strain/Indicator: TA100, Metabolic Activation: NONE, Method: PREINCUBATION)?
Answer: Its mutagenic call is “inactive; negative”.

Question: What about the mutagenic call [3] of the same compound?
Answer: The mutagenic call was “inactive; negative”.

Question: What about the mutagenic call (Test System: AMES SALMONELLA TYPHIMURIUM, Strain/Indicator: TA100, Metabolic Activation: RAT LIVER S-9 (10%), Method: PREINCUBATION) of the same compound?
Answer: Its mutagenic call is “inactive; negative”.

Question: And the mutagenic call [4]?
Answer: The mutagenic call was “inactive; negative”.

Question: And the mutagenic call (Test System: AMES SALMONELLA TYPHIMURIUM, Strain/Indicator: TA100, Metabolic Activation: S-9 MIX, Method: STANDARD PLATE)?
Answer: The mutagenic call was “active; positive”.

Question: What about the mutagenic call (Test System: AMES SALMONELLA TYPHIMURIUM, Strain/Indicator: TA102, Metabolic Activation: NONE, Method: STANDARD PLATE) of the same compound?
Answer: Its mutagenic call is “inactive; negative”.

Question: And the mutagenic call (Test System: AMES SALMONELLA TYPHIMURIUM, Strain/Indicator: TA102, Metabolic Activation: S-9, NADPH GENERATING SYSTEM, Method: STANDARD PLATE)?
Answer: The mutagenic call was “inactive; negative”.

Question: What about the mutagenic call [5] of the same compound?
Answer: Its mutagenic call is “inactive; negative”.

Question: What about the mutagenic call (Test System: AMES SALMONELLA TYPHIMURIUM, Strain/Indicator: TA1535, Metabolic Activation: S-9, NADPH GENERATING SYSTEM, Method: STANDARD PLATE) of the same compound?
Answer: The mutagenic call was “inactive; negative”.

Question: And the mutagenic call [6]?
Answer: The mutagenic call was “inactive; negative”.

Question: And the mutagenic call (Test System: AMES SALMONELLA TYPHIMURIUM, Strain/Indicator: TA1537, Metabolic Activation: S-9, NADPH GENERATING SYSTEM, Method: STANDARD PLATE)?
Answer: Its mutagenic call is “inactive; negative”.

Question: And the mutagenic call (Test System: AMES SALMONELLA TYPHIMURIUM, Strain/Indicator: YG1021, Metabolic Activation: NONE, Method: PREINCUBATION)?
Answer: The mutagenic call was “inactive; negative”.

Question: What about the mutagenic call (Test System: AMES SALMONELLA TYPHIMURIUM, Strain/Indicator: YG1021, Metabolic Activation: RAT LIVER S-9 (10%), Method: PREINCUBATION) of the same compound?
Answer: Its mutagenic call is “inactive; negative”.

Question: And the mutagenic call (Test System: AMES SALMONELLA TYPHIMURIUM, Strain/Indicator: YG1024, Metabolic Activation: NONE, Method: PREINCUBATION)?
Answer: Its mutagenic call is “inactive; negative”.

Question: What about the mutagenic call (Test System: AMES SALMONELLA TYPHIMURIUM, Strain/Indicator: YG1024, Metabolic Activation: RAT LIVER S-9 (10%), Method: PREINCUBATION) of the same compound?
Answer: The mutagenic call was “inactive; negative”.

Question: What about the mutagenic call (Test System: AMES SALMONELLA TYPHIMURIUM, Strain/Indicator: YG1026, Metabolic Activation: NONE, Method: PREINCUBATION) of the same compound?
Answer: The mutagenic call was “active; positive”.

Question: What about the mutagenic call (Test System: AMES SALMONELLA TYPHIMURIUM, Strain/Indicator: YG1026, Metabolic Activation: RAT LIVER S-9 (10%), Method: PREINCUBATION) of the same compound?
Answer: Its mutagenic call is “active; positive”.

Question: And the mutagenic call (Test System: AMES SALMONELLA TYPHIMURIUM, Strain/Indicator: YG1029, Metabolic Activation: NONE, Method: PREINCUBATION)?
Answer: Its mutagenic call is “active; positive”.

Question: And the mutagenic call (Test System: AMES SALMONELLA TYPHIMURIUM, Strain/Indicator: YG1029, Metabolic Activation: RAT LIVER S-9 (10%), Method: PREINCUBATION)?
Answer: The mutagenic call was “active; positive”.

Question: And the mutagenic call (Test System: AMES SALMONELLA TYPHIMURIUM, Strain/Indicator: YG1041, Metabolic Activation: NONE, Method: PREINCUBATION)?
Answer: Its mutagenic call is “active; positive”.

Question: What about the mutagenic call (Test System: AMES SALMONELLA TYPHIMURIUM, Strain/Indicator: YG1041, Metabolic Activation: RAT LIVER S-9 (10%), Method: PREINCUBATION) of the same compound?
Answer: The mutagenic call was “active; positive”.

Question: And the mutagenic call (Test System: AMES SALMONELLA TYPHIMURIUM, Strain/Indicator: YG1042, Metabolic Activation: NONE, Method: PREINCUBATION)?
Answer: Its mutagenic call is “active; positive”.

Question: And the mutagenic call (Test System: AMES SALMONELLA TYPHIMURIUM, Strain/Indicator: YG1042, Metabolic Activation: RAT LIVER S-9 (10%), Method: PREINCUBATION)?
Answer: Its mutagenic call is “active; positive”.
